Experimental data reported in patent US20230087118A1, “IMIDAZO[1,2-a][sequence] DERIVATIVES AND THEIR USE IN THE TREATMENT OF DISEASE” (priority 2019, published 2023).
Structures can show the parent of a compound that is named as a salt. Where two headings read alike, the source gives them in different places.

Biological target: T1, IRAK4 (Homo sapiens, UniProt Q9NWZ3)
T1 sequence (Q9NWZ3 1-460): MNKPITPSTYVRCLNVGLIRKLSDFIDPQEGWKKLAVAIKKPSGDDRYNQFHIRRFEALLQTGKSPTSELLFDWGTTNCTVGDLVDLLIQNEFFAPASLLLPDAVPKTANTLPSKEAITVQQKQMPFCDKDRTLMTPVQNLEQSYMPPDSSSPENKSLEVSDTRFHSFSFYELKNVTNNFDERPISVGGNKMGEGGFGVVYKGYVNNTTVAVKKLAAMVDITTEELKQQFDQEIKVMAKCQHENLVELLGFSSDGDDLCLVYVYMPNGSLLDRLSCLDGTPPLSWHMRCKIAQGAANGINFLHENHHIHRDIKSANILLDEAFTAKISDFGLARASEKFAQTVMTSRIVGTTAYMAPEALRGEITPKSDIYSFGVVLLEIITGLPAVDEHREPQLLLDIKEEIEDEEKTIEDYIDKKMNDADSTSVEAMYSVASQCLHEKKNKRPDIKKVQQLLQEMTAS
Experiment: biochemical

[1] = IRAK4 Biochemical Assay (1 mM ATP, 2 h) IC50 (μM), 1 mM ATP, 2 h, 100 pM IRAK4

SMILES | IC50 [µM] | IC50 [1] [µM]
COc1cc2nc(C3CCOCC3)cn2cc1C(=O)Nc1ccnc(C)c1OC [Example 201] | 0.378 | 
COc1ncccc1NC(=O)c1cn2cc(C34COC(C)(C3)C4)nc2cc1OC(F)F [Example 332, 7-(Difluoromethoxy)-N-(2-methoxypyridin-3-yl)-2-(1-methyl-2-oxabicyclo[2.1.1]hexan-4-yl)imidazo[1,2-a]pyridine-6-carboxamide trifluoroacetate] |  | 0.0052
CCOc1nc2nc(C34COC(C)(C3)C4)cn2cc1C(=O)Nc1cccc(C(F)F)n1 [Example 241] | 0.0015 | 
Cn1ccc(NC(=O)c2cn3cc([C@]45CC[C@](C)(C4)OC5)nc3nc2OC2CCC2)n1 (single isomer, unassigned) [Example 648] | 0.0045 | 
CC(C)Oc1cc2nc(C34COC(C)(C3)C4)cn2cc1C(=O)Nc1nccc(C(F)F)n1 [Example 295, N-(4-(difluoromethyl)pyrimidin-2-yl)-7-isopropoxy-2-(1-methyl-2-oxabicyclo[2.1.1]hexan-4-yl)imidazo[1,2-a]pyridine-6-carboxamide trifluoroacetate] |  | 0.0097
COc1ncccc1NC(=O)c1cn2c(F)c(C34COC(C)(C3)C4)nc2cc1OC(C)C [Example 325, 3-Fluoro-7-isopropoxy-N-(2-methoxypyridin-3-yl)-2-(1-methyl-2-oxa-bicyclo[2.1.1]hexan-4-yl)imidazo[1,2-a]pyridine-6-carboxamide trifluoroacetate] |  | 0.0086
O=C(Nc1cccc(C(F)F)n1)c1cc(OC(F)F)c2nc(C3CCOCC3)cn2c1 [Example 63, 8-(Difluoromethoxy)-N-(6-(difluoromethyl)pyridin-2-yl)-2-(tetrahydro-2H-pyran-4-yl)imidazo[1,2-a]pyridine-6-carboxamide trifluoroacetate] |  | 0.0078
CCC(C)Oc1nc2nc(C34COC(C)(C3)C4)cn2cc1C(=O)Nc1cnn2cc(C)cnc12 (single isomer, unassigned) [Example 643] | 0.0004 | 
CC(C)Oc1nc2nc(C34COC(C)(C3)C4)cn2cc1C(=O)Nc1nc(C(F)(F)F)cs1 [Example 397, 7-Isopropoxy-2-(1-methyl-2-oxabicyclo[2.1.1]hexan-4-yl)-N-(4-(trifluoromethyl)thiazol-2-yl)imidazo[1,2-a]pyrimidine-6-carboxamide] | 0.0134 | 
CC(C)Oc1nc2nc(C34COC(C)(C3)C4)cn2cc1C(=O)Nc1cccc(C(F)F)c1 [Example 386, N-(3-(difluoromethyl)phenyl)-7-isopropoxy-2-(1-methyl-2-oxabicyclo[2.1.1]hexan-4-yl)imidazo[1,2-a]pyrimidine-6-carboxamide] | 0.0012 | 
CC(C)Oc1nc2nc([C@@]34CC[C@@](C)(C3)OC4)cn2cc1C(=O)Nc1cnn2cc(F)cnc12 (single isomer, unassigned) [Example 630] | 0.0003 | 
CC12CC(c3cn4cc(C(=O)Nc5cnn6cccnc56)c(OC5CCC5)nc4n3)(CO1)C2 [Example 371, 7-Cyclobutoxy-2-(1-methyl-2-oxabicyclo[2.1.1]hexan-4-yl)-N-(pyrazolo[1,5-a]pyrimidin-3-yl)imidazo[1,2-a]pyrimidine-6-carboxamide] | 0.0003 | 
CCOc1nc(C(=O)Nc2cc(F)cnc2OC)cn2cc([C@H]3CCCOC3)nc12 (single isomer, unassigned) [Example 595] | 0.0128 | 
CCOc1cc(C(=O)Nc2cccc(C(F)F)n2)cn2cc([C@H]3CCCOC3)nc12 (single isomer, unassigned) [Example 55] | 0.0135 | 
CC(C)Oc1cc2nc(C34COC(C)(C3)C4)cn2cc1C(=O)Nc1cnc2cccnn12 [Example 321, N-(imidazo[1,2-b]pyridazin-3-yl)-7-isopropoxy-2-(1-methyl-2-oxabicyclo[2.1.1]hexan-4-yl)imidazo[1,2-a]pyridine-6-carboxamide 2,2,2-trifluoroacetate] |  | 0.0003
CC(C)Oc1nc(C(=O)Nc2cnn3cccnc23)cn2cc(C34CCC(C)(CC3)OC4)nc12 [Example 428, 8-Isopropoxy-2-(1-methyl-2-oxabicyclo[2.2.2]octan-4-yl)-N-(pyrazolo[1,5-a]pyrimidin-3-yl)imidazo[1,2-a]pyrazine-6-carboxamide] | 0.0016 | 
CCCOc1nc(C(=O)Nc2cccnc2OC)cn2cc(C34CCC(C)(C3)OC4)nc12 (stereo not drawn) [Example 275, N-(2-methoxypyridin-3-yl)-2-(1-methyl-2-oxabicyclo[2.2.1]heptan-4-yl)-8-propoxyimidazo[1,2-a]pyrazine-6-carboxamide trifluoroacetate] |  | 0.0007
CC(C)Oc1cc2nc(C34COC(C)(C3)C4)cn2cc1C(=O)Nc1ccn(C2CCCC2)n1 [Example 315, N-(1-cyclopentyl-1H-pyrazol-3-yl)-7-isopropoxy-2-(1-methyl-2-oxabicyclo[2.1.1]hexan-4-yl)imidazo[1,2-a]pyridine-6-carboxamide trifluoroacetate] |  | 0.0045

SMILES | IC50 [µM] | IC50 [1] [µM]
Cc1cnc2c(NC(=O)c3cn4cc(C56CC(C)(C5)OC6(C)C)nc4nc3OC(C)C)cnn2c1 [Example 311, 7-Isopropoxy-N-(6-methylpyrazolo[1,5-a]pyrimidin-3-yl)-2-(1,3,3-trimethyl-2-oxabicyclo[2.1.1]hexan-4-yl)imidazo[1,2-a]pyrimidine-6-carboxamide trifluoroacetate] |  | 0.0014
CC(C)Oc1cc2nc(C34COC(C)(C3)C4)cn2cc1C(=O)Nc1cccc(N(C)C)n1 [Example 260, N-(6-(dimethylamino)pyridin-2-yl)-7-isopropoxy-2-(1-methyl-2-oxabicyclo[2.1.1]hexan-4-yl)imidazo[1,2-a]pyridine-6-carboxamide 2,2,2-trifluoroacetate] |  | 0.0005
CCn1cccc(NC(=O)c2cn3cc(C45CCC(C)(C4)OC5)nc3cc2OC2CCC2)c1=O (stereo not drawn) [Example 535, 7-Cyclobutoxy-N-(1-ethyl-2-oxo-1,2-dihydropyridin-3-yl)-2-(1-methyl-2-oxabicyclo[2.2.1]heptan-4-yl)imidazo[1,2-a]pyridine-6-carboxamide] | 0.0011 | 
Cc1cnc2c(NC(=O)c3cn4cc(C56CCC(C)(C5)OC6)nc4cc3OC3CCC3)cnn2c1 (stereo not drawn) [Example 426, 7-Cyclobutoxy-2-(1-methyl-2-oxabicyclo[2.2.1]heptan-4-yl)-N-(6-methylpyrazolo[1,5-a]pyrimidin-3-yl)imidazo[1,2-a]pyridine-6-carboxamide] | 0.0003 | 
COCc1cc2nc(C34COC(C)(C3)C4)cn2cc1C(=O)Nc1cnn2cc(C)cnc12 [Example 288, 7-(Methoxymethyl)-2-(1-methyl-2-oxabicyclo[2.1.1]hexan-4-yl)-N-(6-methylpyrazolo[1,5-a]pyrimidin-3-yl)imidazo[1,2-a]pyridine-6-carboxamide] | 1.23 | 
CC(C)Oc1nc2nc(C3C4COCC43)cn2cc1C(=O)Nc1ccn(C)n1 (stereo not drawn) [Example 396, 2-(3-Oxabicyclo[3.1.0]hexan-6-yl)-7-isopropoxy-N-(1-methyl-1H-pyrazol-3-yl)imidazo[1,2-a]pyrimidine-6-carboxamide formate] |  | 0.0076
CC(C)Oc1nc(C(=O)Nc2cccc(C(F)F)n2)cn2cc(C34COC(C)(C3)C4)nc12 [Example 336, N-(6-(difluoromethyl)pyridin-2-yl)-8-isopropoxy-2-(1-methyl-2-oxabicyclo[2.1.1]hexan-4-yl)imidazo[1,2-a]pyrazine-6-carboxamide] | 0.0021 | 
CC(C)Oc1cc2nc(C3CC3)cn2cc1C(=O)Nc1cccc(C#N)n1 [Example 638, N-(6-cyanopyridin-2-yl)-2-cyclopropyl-7-isopropoxyimidazo[1,2-a]pyridine-6-carboxamide] | 0.0045 | 
CCOc1nc(C(=O)Nc2cccnc2OC)cn2cc(C3CCOC3)nc12 (stereo not drawn) [Example 273, 8-Ethoxy-N-(2-methoxypyridin-3-yl)-2-(tetrahydrofuran-3-yl)imidazo[1,2-a]pyrazine-6-carboxamide] | 0.0047 | 
CC(C)Oc1cc2nc(C34CCC(C3)OC4)cn2cc1C(=O)Nc1cnn2cccnc12 (stereo not drawn) [Example 416, 2-(2-Oxabicyclo[2.2.1]heptan-4-yl)-7-isopropoxy-N-(pyrazolo[1,5-a]pyrimidin-3-yl)imidazo[1,2-a]pyridine-6-carboxamide] | 0.0006 | 
COc1nc(C(=O)Nc2ccn(C(F)F)n2)cn2cc(C3CCOCC3)nc12 [Example 87] | 0.0329 | 
Cc1cc(-n2ccc(NC(=O)c3cn4cc(C56CCC(C)(C5)OC6)nc4cc3OC3CCC3)n2)ccn1 (stereo not drawn) [Example 531, 7-Cyclobutoxy-2-(1-methyl-2-oxabicyclo[2.2.1]heptan-4-yl)-N-(1-(2-methylpyridin-4-yl)-1H-pyrazol-3-yl)imidazo[1,2-a]pyridine-6-carboxamide] | 0.0008 | 
COCCn1ccc(NC(=O)c2cn3cc(C4C5COCC54)nc3cn2)n1 (stereo not drawn) [Example 84] | 7.51 | 
CC(C)Oc1cc2nc(C34COC(C)(C3)C4)cn2cc1C(=O)Nc1ccc(F)cn1 [Example 244] | 0.0059 | 
COc1cccc(NC(=O)c2cn3cc(C45CCC(C)(CC4)OC5)nc3cc2OC)n1 [Example 29] |  | 0.0041
O=C(Nc1cccc(C(F)F)n1)c1cn2cc(C3CC3)nc2cc1OC1CCOCC1 [Example 473, 2-Cyclopropyl-N-(6-(difluoromethyl)pyridin-2-yl)-7-((tetrahydro-2H-pyran-4-yl)oxy)imidazo[1,2-a]pyridine-6-carboxamide] |  | 0.0064
CC(Oc1cc2nc(C34COC(C)(C3)C4)cn2cc1C(=O)Nc1cccc(C(F)F)n1)C(F)(F)F (single isomer, unassigned) [Example 619] | 0.0001 | 
COC12CC(c3cn4cc(C(=O)Nc5cccc(C(F)F)n5)c(OC(C)C)cc4n3)(C1)C2 [Example 227] | 0.0003 | 
